In patent publication US20100168218A1 (priority 2005, published 2010):
Where two headings read alike, the source gives them in different places. Each block holds one molecule with its values, some of them ahead of it.

Columns and labels:
[1] = test system: FAO in the ventrolateral hypothalamus (VLH); conditions: cited from earlier work
[2] = target: human FAS (Homo sapiens, UniProt P49327); assay: FAS inhibition assay (standard and slow-binding); assay type: biochemical
Description: (§1) In contrast, it stimulated FAO by 150% of control at 8.4 μg/ml (28 μM) and CPT-1 activity by 150% of control at 20 μg/ml (˜60 μM). In lean female Balb/C mice, a single ip dose of 60 mg/kg caused nearly 8% weight loss within 24 hours along with a 68% reduction in food intake. […] Compound 5, with a different chemical structure, has similar biological characteristics to Compound 4.

[3] = Weight loss, food intake and indirect calorimetry in lean female Balb/C mice, 60 mg/kg; assay type: in vivo; conditions: for Metabolic Mechanism (indirect calorimetry): RER / Metabolic Mechanism (indirect calorimetry): VO2: compared to pair-fed animals; for % Maximum Reduction in Food Intake: day 1; for % Maximum Reduction in Food Intake / % Max. Wt Loss: 60 mg/kg
Description: Compounds 4 and 5 were administered to pair-fed mice, and various biological properties were tested for. The results are summarized below:
as §1

[4] = test system: MCF7 human breast cancer cells; assay: Fatty acid oxidation: oxidation of [14C]palmitate to acid soluble products; assay type: cell-based
Excerpt: By “FAO-stimulator,” we mean a compound which stimulates FAO as measured by oxidation of [^14C]palmitate to acid soluble products in MCF7 human breast cancer cells as described by Watkins, et al., “Peroxisomal fatty acid beta-oxidation in HepG2 cells,” Arch Biochem Biophys, 289: 329-336 (1991). A compound whose Vmax is at least 125% of vehicle control is defined as an FAO stimulator.

[5] = portal vein infusion, 18 h chow deprived rats; cited from earlier work
[6] = systemic FAO inhibition, rodents; cited from earlier work
[7] = C75 administration, separate studies; cited from earlier work
[8] = test system: carnitine palmitoyltransferase-1 (CPT-1); conditions: Thupari et al.; cited from earlier work
[9] = test system: CPT-1; assay: CPT-1 activity in digitonin permeabilized cells; assay type: cell-based
[10] = Oral 100 mg/kg in diet-induced obese mice vs pair-fed and control animals (FIG. 3); assay type: in vivo
Description: In this experiment, compound 4 was administered orally at 100 mg/kg, in 35 μl DMSO to diet-induced obese mice, 5 animals per group.

[11] = slow binder requires preincubation at 37° C. prior to FAS assay, read-out: FAS Inhibition IC50
[12] = concentration that yields a 50% increase in fatty acid oxidation over controls, linear regression analysis, read-out: FAO SC150
[13] = single ip dose of 60 mg/kg, within 24 hours, lean female Balb/C mice

Sequence of human FAS (P49327 whole entry): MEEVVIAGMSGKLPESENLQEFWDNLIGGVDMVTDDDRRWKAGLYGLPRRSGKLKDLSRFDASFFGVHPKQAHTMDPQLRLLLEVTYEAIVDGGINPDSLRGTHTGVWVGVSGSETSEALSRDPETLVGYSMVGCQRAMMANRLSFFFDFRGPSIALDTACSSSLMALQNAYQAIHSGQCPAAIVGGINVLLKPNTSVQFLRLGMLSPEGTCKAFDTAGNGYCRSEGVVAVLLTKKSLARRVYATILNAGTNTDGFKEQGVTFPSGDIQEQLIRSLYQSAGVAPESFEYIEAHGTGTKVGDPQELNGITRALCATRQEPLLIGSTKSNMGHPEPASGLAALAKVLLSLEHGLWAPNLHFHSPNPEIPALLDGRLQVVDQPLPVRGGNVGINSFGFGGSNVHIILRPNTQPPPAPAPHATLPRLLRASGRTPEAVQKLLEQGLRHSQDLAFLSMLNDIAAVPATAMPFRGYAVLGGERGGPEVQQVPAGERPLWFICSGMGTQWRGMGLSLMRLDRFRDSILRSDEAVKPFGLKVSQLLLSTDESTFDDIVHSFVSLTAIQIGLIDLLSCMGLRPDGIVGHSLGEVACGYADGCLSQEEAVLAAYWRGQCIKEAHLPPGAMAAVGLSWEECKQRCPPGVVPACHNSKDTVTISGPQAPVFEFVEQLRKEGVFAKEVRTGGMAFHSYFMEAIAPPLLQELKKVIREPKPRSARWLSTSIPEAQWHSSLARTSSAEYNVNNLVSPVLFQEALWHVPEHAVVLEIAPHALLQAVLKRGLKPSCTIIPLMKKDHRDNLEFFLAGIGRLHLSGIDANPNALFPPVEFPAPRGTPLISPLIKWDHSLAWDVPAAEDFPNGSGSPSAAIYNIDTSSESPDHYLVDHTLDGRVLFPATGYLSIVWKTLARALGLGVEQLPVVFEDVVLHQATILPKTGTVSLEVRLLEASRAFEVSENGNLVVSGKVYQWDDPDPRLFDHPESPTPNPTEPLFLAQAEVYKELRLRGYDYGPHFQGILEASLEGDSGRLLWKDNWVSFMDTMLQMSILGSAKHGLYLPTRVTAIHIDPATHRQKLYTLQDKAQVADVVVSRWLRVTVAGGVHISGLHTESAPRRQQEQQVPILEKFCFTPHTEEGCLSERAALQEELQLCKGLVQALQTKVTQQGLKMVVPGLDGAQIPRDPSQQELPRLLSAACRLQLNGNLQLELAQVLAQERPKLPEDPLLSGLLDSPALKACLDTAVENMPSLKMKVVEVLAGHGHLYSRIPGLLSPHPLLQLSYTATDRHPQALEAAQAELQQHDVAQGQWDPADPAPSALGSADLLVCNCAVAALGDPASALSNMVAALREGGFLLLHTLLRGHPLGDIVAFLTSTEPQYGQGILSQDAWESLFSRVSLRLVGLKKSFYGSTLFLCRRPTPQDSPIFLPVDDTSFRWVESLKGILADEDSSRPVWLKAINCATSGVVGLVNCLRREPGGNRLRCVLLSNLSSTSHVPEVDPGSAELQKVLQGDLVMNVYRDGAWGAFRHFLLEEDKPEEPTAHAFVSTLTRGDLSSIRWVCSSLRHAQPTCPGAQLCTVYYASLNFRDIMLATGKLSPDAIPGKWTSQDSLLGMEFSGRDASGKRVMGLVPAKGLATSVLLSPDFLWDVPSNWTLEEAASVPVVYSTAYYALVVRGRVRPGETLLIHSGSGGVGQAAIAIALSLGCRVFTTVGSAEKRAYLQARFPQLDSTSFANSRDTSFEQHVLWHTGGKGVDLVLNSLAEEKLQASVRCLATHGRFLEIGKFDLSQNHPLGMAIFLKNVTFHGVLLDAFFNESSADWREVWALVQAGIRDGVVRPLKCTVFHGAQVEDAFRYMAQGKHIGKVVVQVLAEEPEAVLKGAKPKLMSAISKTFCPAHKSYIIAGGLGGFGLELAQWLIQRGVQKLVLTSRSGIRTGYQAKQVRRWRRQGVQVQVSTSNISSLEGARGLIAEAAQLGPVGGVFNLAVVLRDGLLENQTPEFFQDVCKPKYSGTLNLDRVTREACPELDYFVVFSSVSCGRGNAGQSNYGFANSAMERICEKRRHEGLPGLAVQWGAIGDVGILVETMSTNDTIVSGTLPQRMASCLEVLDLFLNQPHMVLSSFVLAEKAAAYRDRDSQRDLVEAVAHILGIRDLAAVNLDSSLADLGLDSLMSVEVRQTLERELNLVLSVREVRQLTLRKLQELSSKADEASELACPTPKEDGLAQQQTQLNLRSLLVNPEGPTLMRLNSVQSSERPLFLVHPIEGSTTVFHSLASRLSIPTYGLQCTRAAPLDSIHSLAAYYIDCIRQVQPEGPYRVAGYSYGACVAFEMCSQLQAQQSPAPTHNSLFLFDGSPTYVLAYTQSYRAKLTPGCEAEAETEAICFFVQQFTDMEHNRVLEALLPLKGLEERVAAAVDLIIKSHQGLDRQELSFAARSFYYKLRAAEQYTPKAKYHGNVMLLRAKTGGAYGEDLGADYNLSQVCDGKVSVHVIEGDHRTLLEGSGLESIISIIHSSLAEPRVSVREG

Structure (SMILES): C=CCCC(=O)O [Compound 4-PA, 4-pentanoic acid]
- weight or carcass composition ([1]; after 2 weeks of central FAO inhibition, rats): no significant changes in weight or carcass composition
- reduction of FAO in the VLH ([1]; infusion for 14 days into the VLH of rats): 37%

- IC50 [2, 11]: > 110 µM
- EC50 [4, 12]: 9 µg/mL
Structure (SMILES): CCCCC1OC(=O)C(=O)C1C(=O)OCC (stereo not drawn) [Compound 5]
- Metabolic Mechanism (indirect calorimetry): RER [3]: ↓RER p = 0.01
- Metabolic Mechanism (indirect calorimetry): VO2 [3]: ↑VO2
- % Maximum Reduction in Food Intake ([3]; lean female Balb/C mice): 50% (day 1)
- % Max. Wt Loss ([3]; lean female Balb/C mice): 12.3%

Structure (SMILES): CCCCCCCC(=O)O [caprylic acid]
- FAO as measured by plasma β-hydroxybutyrate [5]: increased FAO
- reduction of the size of the first dark phase meal [5]: 38%

Structure (SMILES): CCCCCCCCCCCCCCC1(C(=O)OC)CO1 (stereo not drawn) [methyl palmoxirate]
- feeding [6]: Increased feeding

Structure (SMILES): C=C1C(=O)O[C@@H](CCCCCCCC)[C@@H]1C(=O)O (relative stereo) [Compound C75, trans-tetrahydro-3-methylene-2-oxo-5-n-octyl-4-furancarboxylic]
- energy expenditure [7]: increases energy expenditure
- food intake [7]: reducing food intake
- CPT-1 activity [8]: stimulates carnitine palmitoyltransferase-1 (CPT-1) activity

Structure (SMILES): O=C(O)CS [mercaptoacetate]
- feeding [6]: Increased feeding

Structure (SMILES): C[N+](C)(C)C[C@H](O)CC(=O)[O-] [L-carnitine]
- food intake or animal weight ([1]; infusion into the VLH of rats): did not affect food intake or animal weight
- increase of FAO in the VLH over control levels ([1]; infusion into the VLH of rats): 28%

- IC50 [2, 11]: > 77.5 µM
- IC50 ([2]; standard and slow-binding assays, read-out: human FAS inhibition: no inhibition at concentrations up to): > 310 µM
- EC50 [4, 12]: 8.4 µg/mL
- EC50 ([4]; molar equivalent of 8.4 μg/ml, read-out: concentration stimulating FAO by 150% of control): 28 µM
Structure (SMILES): C=CCC1(CC=C)C(=O)S[C@](C)(CCCCCCCC)C1=O [Compound 4]
- CPT-1 Activity % ([9]; % of control at concentration for maximal CPT-1 activity, digitonin permeabilized cells): 150%
- concentration giving CPT-1 activity 150% of control ([9]; molar equivalent of 20 μg/ml): ~60 µM
- concentration for maximal CPT-1 activity ([9]; number in parenthesis, digitonin permeabilized cells): 20 µg/mL
- Metabolic Mechanism (indirect calorimetry): RER [3]: ↓RER p = 0.0057
- Metabolic Mechanism (indirect calorimetry): VO2 [3]: ↑VO2
- Metabolic Mechanism (indirect calorimetry): RER ([3]; listed as compound 4): reducing RER
- Metabolic Mechanism (indirect calorimetry): VO2 ([3]; listed as compound 4): increased VO2 compared to pair-fed animals
- % Maximum Reduction in Food Intake ([3]; lean female Balb/C mice): 68% (day 1)
- % Max. Wt Loss ([3]; lean female Balb/C mice): 7.9%
- reduction in food intake [3, 13]: 68%
- weight loss [3, 13]: ~8%
- RER vs pair-fed group (FIG. 3D) ([10]; oral 100 mg/kg): significantly reduced compared to the pair-fed group on days 1, 3, and 4
- VO2 by indirect calorimetry vs pair-fed animals (FIG. 3C) ([10]; oral 100 mg/kg): maintained their VO2 compared to pair-fed animals on the first two days following treatment with a significant increase by day 3
- food intake vs control animals (FIG. 3B) ([10]; oral 100 mg/kg): ate significantly less food than control animals on the two days following treatment
- weight loss vs pair-fed animals (FIG. 3A) ([10]; oral 100 mg/kg in DMSO): lost more weight and maintained the weight loss longer than the pair-fed animals
